Results reported in patent US20260000763A1, “Methods of Manufacturing Therapeutic Cells” (The Board of Trustees of the Leland Stanford Junior …, priority 2022, published 2026).

System: HA-INO-CAR T cells
Test: Ciclopirox treatment of inosine-cultured HA-CAR T cells, memory subsets by flow cytometry
Assay type: cell-based, human
Conditions: 20 μM CPX for 24 h, day 16, CD8+ inosine-cultured HA-CAR T cells
Excerpt: Concatenated samples from n=3 donors. […] (Left) Dot plots of representative donor shown.

Question: Which “frequency of central memory-like cells” value does the source give for `Cc1cc(C2CCCCC2)n(O)c(=O)c1` [CPX, ciclopirox] here?
Answer: striking decrease
